Results as given in article PMC5730604.
Read-outs that look alike come from different tables or passages of the source. Starred links: 1 amine or outer side, 2 acyl side, 3 side chain; linkers in the order of their positions; H or OH if unused. Positions of bridges follow the written chain, without caps; N, C: chain ends. Non-standard residues stand in square brackets, D forms with d. Residues, ends and D or L forms follow the SMILES beside them. Groups on a side chain read outwards from the residue. *: point of attachment. PEG28 = NCCOCCOCCOCCOCCOCCOCCOCCOCCOCCOCCOCCOCCOCCOCCOCCOCCOCCOCCOCCOCCOCCOCCOCCOCCOCCOCCOCCOCCC(=O)O; X1 = O=C(CCCC[C@@H]1SC[C@@H]2NC(=O)N[C@@H]21)NCCCOCCOCCOCCCN*; Tyr(3-NO2) = N[C@@H](Cc1ccc(O)c([N+](=O)[O-])c1)C(=O)O; Glutaryl = O=C(CCCC(=O)[*:2])[*:1]; Hyp = O=C(O)[C@@H]1C[C@@H](O)CN1; PEG4 = NCCOCCOCCOCCOCCC(=O)O; For = O=C*

Legend:
MHEC5-T = details: Table S1; mouse; flow cytometry, 1 µM biotinylated peptide, 2 mM MnCl2, on ice
U-87MG = experiment: Flow cytometry binding to cells; set-up: key: ++: strong binding; +: m edium binding; +/-: weak or heterogeneous binding; -: no binding; details: Table S1, human, 1 µM biotinylated peptide, 2 mM MnCl2, on ice
foreskin fibroblasts = details: flow cytometry, 1 µM biotinylated peptide
[1] = test system: primary macrophages 7 days; experiment: Flow cytometry binding to cells; details: 1 µM biotinylated peptide; as to binding to macrophages 7 days: key: ++: strong binding; +: m edium binding; +/-: weak or heterogeneous binding; -: no binding
primary monocytes = experiment: Flow cytometry binding to cells; details: 1 µM biotinylated peptide; also: key: ++: Strong binding; +: medium binding; +/−: weak binding; −: no binding
HeLa = test system: HeLa; set-up: key to the marks not given beside the values; details: Table S1; human; flow cytometry, 1 µM biotinylated peptide, 2 mM MnCl2, on ice
TSA = details: Table S1; mouse; flow cytometry, 1 µM biotinylated peptide, 2 mM MnCl2, on ice
primary lymphocytes = experiment: Flow cytometry binding to cells; details: 1 µM biotinylated peptide; also: key: ++: Strong binding; +: medium binding; +/−: weak binding; −: no binding
primary monocytes 2 days = experiment: Flow cytometry binding to cells; details: 1 µM biotinylated peptide; also: key: ++: Strong binding; +: medium binding; +/−: weak binding; −: no binding
Hepa1–6 = details: mouse, flow cytometry, 1 µM biotinylated peptide
A431 = experiment: Flow cytometry binding to cells; set-up: species or system Human; key to the marks not given beside the values; details: 1 µM biotinylated peptide
NIH-3T3 = details: mouse, flow cytometry, 1 µM biotinylated peptide
Experimental: (§9) from DSMZ or LGC and cultured according to the distributors’ guidelines. Human, murine or
(§10) guinea pig leukocytes or macrophages were isolated and cultured as described below. Cells
(§11) growing in monolayers were detached using trypsin/EDTA and then re- suspended in complete
(§12) culture medium. After washing with washing buffer (W B: 0.9% NaCl, 10 mM Hepes, pH 7.3) at
(§13) 4°C, cells were re-suspended at 2x10^6 cells/ml in peptide blocking b uf f er ( PBB: 0.9% NaCl,
(§14) 10 m M H epes, pH 7.3, 5 m M KCl , 3% BSA, 5% FCS) and incubated for 10 minutes on ice
(§15) concentration in PBB were added to equal volumes of aliquots of 1x10^5 cells, and were
(§16) incubated f or 30 min on ice with repeated shaking to keep the cells in suspension. Except
(§17) three times wit h 1 ml W B, followed by incubation with streptavidin labeled wit h PerCP-Cy5.5
(§18) (BD Biosciences, 200 µg/ml; diluted 1:400 in PBB) for 15 min on ice. After one additional
(§19) wa s h ing step with phosphate- buffered saline (PBS) at 4°C, samples were re-suspended in
(§20) PBS with Hoechst 33258 solution (0.5 µg/ml) and analyzed using a F ACS Canto system ( at
least 1x10^4 cells per sample were counted). Evaluations were performed using FloJo software.
W hole cells were gated i n a FSC/SSC plot and live gating was based on Hoechst exclusion.
After gating out debris, aggregates and dead cells, overlay histograms in the PerCP-Cy5.5
indicated cases the geometrical mean f luorescence was recorded.
For determining binding affinity, a rang e of concentrations of the biotinylated compound was
tested and the f luorescent signals were plotted against concentration. The concentration at
which half-maximum binding intensity was reached (KD) was calculated using Origin 9.0
sof tware and a “one site specif ic binding” fit (y =(Bmax* x) /(KD+x) ).
f luorescent signals were plotted against competitor concentration. The concentration at which

J774A.1 = details: mouse, flow cytometry, 1 µM biotinylated peptide
HT-29 = experiment: Flow cytometry binding to cells; set-up: key: ++: strong binding; +: m edium binding; +/-: weak or heterogeneous binding; -: no binding; details: Table S1, human, 1 µM biotinylated peptide, 2 mM MnCl2, on ice
primary macrophages 7d = experiment: Flow cytometry binding to cells; details: 1 µM biotinylated peptide; also: key: ++: Strong binding; +: medium binding; +/−: weak binding; −: no binding
3LL-S = details: Table S1; mouse; flow cytometry, 1 µM biotinylated peptide, 2 mM MnCl2, on ice
104C1 = experiment: Flow cytometry binding to cells; set-up: key to the marks not given beside the values; details: 1 µM biotinylated peptide
3LL-R = details: mouse, flow cytometry, 1 µM biotinylated peptide
HUVEC = experiment: Flow cytometry binding to cells; set-up: species or system Human; details: 1 µM biotinylated peptide
MCF-7 = experiment: Flow cytometry binding to cells; details: Table S1, human, 1 µM biotinylated peptide, 2 mM MnCl2, on ice; also: key: ++: strong binding; +: m edium binding; +/-: weak or heterogeneous binding; -: no binding
MDA-MB-231 = experiment: Flow cytometry binding to cells; set-up: key: ++: strong binding; +: m edium binding; +/-: weak or heterogeneous binding; -: no binding; details: Table S1, human, 1 µM biotinylated peptide, 2 mM MnCl2, on ice
4T1 = details: Table S1; mouse; flow cytometry, 1 µM biotinylated peptide, 2 mM MnCl2, on ice
Experimental: as §9, §10, §11, §12, §13, §14, §15, §16, §17, §18, §19, §20
(§21) least 1x10^4 cells per sample were counted). Evaluations were performed using FloJo software. […]
(§22) indicated cases the geometrical mean f luorescence was recorded. […]
(§23) which half-maximum binding intensity was reached (KD) was calculated using Origin 9.0 […]

VX2 / J S-2-2r = experiment: Flow cytometry binding to cells; set-up: key: ++: strong binding; +: m edium binding; +/-: weak or heterogeneous binding; -: no binding; details: Table S1, rabbit, 1 µM biotinylated peptide, 2 mM MnCl2, on ice
leukocytes = details: Table S1; rabbit; flow cytometry, 1 µM biotinylated peptide, 2 mM MnCl2, on ice
U-138MG = experiment: Flow cytometry binding to cells; set-up: key: ++: strong binding; +: m edium binding; +/-: weak or heterogeneous binding; -: no binding; details: Table S1, human, 1 µM biotinylated peptide, 2 mM MnCl2, on ice
L-929 = details: Table S1; mouse; flow cytometry, 1 µM biotinylated peptide, 2 mM MnCl2, on ice
Experimental: as §9, §10, §11, §12, §13, §14, §15, §16, §17, §18, §19, §20, §21, §22, §23

JH4 clone 1 = experiment: Flow cytometry binding to cells; set-up: key to the marks not given beside the values; details: 1 µM biotinylated peptide
PC-3 or A431 cells = details: PC-3 or A431 cells, incubated at 37 °C, streptavidin staining
Experimental: washed as described above and then re-suspended in Eagle’s minimum essential medium
incubated on ice or at 37°C. At different time points after washing 50 µl samples were taken
and added to 50 µl of Streptavidin- PerCP-Cy5.5 (diluted 1:200), incubated on ice f or 15 min,
washed with PBS, and analyzed in PBS with Hoechst solution. Fluorescent signals were
plotted against time between washing and streptavidin addition.
over time after incubation on ice and at 37°C.
labeled streptavidin as described previously f or flow cytometry assays.

PC-3 = experiment: Flow cytometry binding to cells; set-up: species or system Human; key to the marks not given beside the values; details: 1 µM biotinylated peptide
primary granulocytes = experiment: Flow cytometry binding to cells; details: 1 µM biotinylated peptide; also: key: ++: Strong binding; +: medium binding; +/−: weak binding; −: no binding
MC38 = details: Table S1; mouse; flow cytometry, 1 µM biotinylated peptide, 2 mM MnCl2, on ice
E0771 = details: Table S1; mouse; flow cytometry, 1 µM biotinylated peptide, 2 mM MnCl2, on ice
Experimental: as §9, §10, §11, §12, §13, §14, §15, §16, §17, §18, §19, §20, §21, §22, §23

PBEC = details: Table S1; pig; flow cytometry, 1 µM biotinylated peptide, 2 mM MnCl2, on ice
EG7 = details: Table S1; mouse; flow cytometry, 1 µM biotinylated peptide, 2 mM MnCl2, on ice
A549 = test system: A549; set-up: key to the marks not given beside the values; details: Table S1; human; flow cytometry, 1 µM biotinylated peptide, 2 mM MnCl2, on ice
GPC-16 = experiment: Flow cytometry binding to cells; set-up: key to the marks not given beside the values; details: 1 µM biotinylated peptide
C26 = details: Table S1; mouse; flow cytometry, 1 µM biotinylated peptide, 2 mM MnCl2, on ice
K562 = experiment: Flow cytometry binding to cells; set-up: species or system Human; details: 1 µM biotinylated peptide; also: key: ++: Strong binding; +: medium binding; +/−: weak binding; −: no binding
human monocytes = experiment: Cytokine release assay (ELISA); type: cell-based; details: 6 h incubation
Experimental: Phorbol
(§1) 12- m yr ist oyl 13-acetate (P MA , 3 µg/ml) was used as a positive control. All samples were f ixed
(§2) in 1% formaldehyde Hoechst 33258 solution (0.5 µg/ml) was added and cells were k ept on ice
(§3) until analysis using a FACS Canto system. After gating for live cells and granulocytes (human
(§4) cells) or non- lymphocytes (murine cells) in the FSC/SSC plot, rhodamine-positive cells were
(§5) identif ied in a PE/SSC plot, using an unstimulated sample as a reference.
(§6) Human monocytes, after an overnight pre- culture, were incubated f or 6 more hours in 1 ml
(§7) RPMI+10% FCS containing 100 nM F2- 2PEG, 0.1 ng/ml LPS (Sigma- Aldrich), or no stimulus.
All experiments were performed in duplicates. Supernatants were centrif uged and aliq uot s of
150 µl were stored at - 80 °C until cytokine levels were measured with commercially available
ELISA kits (Ready-set-go system, eBiosciences). Cytokine concentrations in supernatants
were measured and calculated based on the standards included wit hin the ELISA kits and as
described by the manufacturer’s instructions. The following k its were used: Human TNFα (88-
analysis. Measured cytok ine levels were normalized to 1 (the average of the two unstimulated

human granulocytes = experiment: Oxidative burst (dihydro-rhodamine oxidation) assay; type: cell-based; details: compared with the non-PEGylated effector
Experimental: Activation of the oxidative burst (phagocyte NADPH oxidase) was measured using a
dihydrorhodamine (DHR, Molecular Probes) oxidation assay, based on a method described
previously1. In brief, 200 µl samples of human, murine or guinea pig leukocytes (1.25x 106
cells/ml in HHBS + 10 mM Hepes, pH 7.3, 0.3% BSA and 5 mM EDTA) were loaded with DHR
and catalase (Sigma-Aldrich) and cytochalasin B (Sigma-Aldrich) were added. Cells were pre-
incubated at 37°C for 10 min followed by the addition of 50 µl of effector dilutions (5x the
intended concentration) in the same buffer and another 15 min of incubation at 37°C. Phorbol
as §1, §2, §3, §4, §5, §6, §7
(§8) All experiments were performed in duplicates. […]

human leukocytes = experiment: Chemotaxis assay; type: cell-based; details: compared with the non-PEGylated effector
Experimental: Human leukocytes were re-suspended in Hank ’s Buffered Saline Solution (HBSS, without
Ca2+, Mg 2+) with 10 mM Hepes pH 7.3 and 0.3% BSA at 10^7 cells/ml. Cells were pre-warmed
at 37°C for 20 min. After adding the effector dilutions in the lower compartment of 24-well plates
(800 µl/well), a Millicell culture plate insert with 5 µm pore size was placed in each well, f ollowed
by immediate addition of 200 µl (2 million) leuk ocytes. In one well, the cells were added without
a f ilter insert, allowing determination of the input number. The plate was incubated at 37°C and
5% CO2 f or 45 min. 5 mM EDTA solution was added and the plate was incubated f or another
10 min at 37 °C. […]
Phorbol
as §1, §2, §3, §4, §5, §6, §7, §8

mouse skin = experiment: Local skin inflammation model, immune cell infiltration; type: in vivo; details: mouse skin, 24 h after subcutaneous injection of 100 nmol in Matrigel, HE sections
Experimental: Animals: Eighth Edition. W ashington, DC: The National Academies Press, 2011) were […]
Committee (LANUV AZ. 87- 51.04.2010.A278). All experiments were performed in the Institute […]
GmbH (Sulzf eld, Germany) were used. Mice were housed in individual ventilated cages under […]
humidity and a 12h dark/light cycle.
Soest, Germany) was given ad libitum. Guinea pigs were housed in conventional open cages in the same way as describe for mice. Animals were allowed to acclimatize to their […]
additional immunohistochemical stainings with antibodies against granulocytes/monocytes

[2] = Table S1, human, 2 mM MnCl2, on ice
[3] = 2 mM MnCl2, 30 min on ice, streptavidin-PerCP-Cy5.5
[4] = human, 2 mM MnCl2, 30 min on ice, streptavidin-PerCP-Cy5.5
[5] = Table S1, guinea pig, 2 mM MnCl2, on ice
[6] = guinea pig, 2 mM MnCl2, 30 min on ice, streptavidin-PerCP-Cy5.5
[7] = 100 nM F2-2PEG or 0.1 ng/ml LPS

## NC(=O)C[C@@H]1NC(=O)[C@@H]2C[C@@H](O)CN2C(=O)CNC(=O)[C@H](Cc2ccc(O)c([N+](=O)[O-])c2)NC(=O)CNC(=O)[C@@H](CC(=O)O)NC(=O)[C@H](N)CSSC[C@H](C(=O)NCCOCCOCCOCCOCCC(=O)N[C@@H](CCCCNC(=O)CCCC(=O)NCCCOCCOCCOCCCNC(=O)CCCC[C@@H]2SC[C@@H]3NC(=O)N[C@@H]32)C(N)=O)NC1=O [B9-Biotin] (H-[dC][dD]G[Tyr(3-NO2)]G[Hyp]N[dC][PEG4]K([Glutaryl-X1])-NH2; disulfide 1-8)
MHEC5-T
  binding to MHEC5-T: +
U-87MG
  binding to U-87MG: ++
Foreskin fibroblasts; [2]
  binding to foreskin fibroblasts: -
Foreskin fibroblasts; [3]
  binding to foreskin fibroblasts: −
[1]; [2]
  binding to macrophages 7 days: +/-
[1]; [4]
  binding to primary macrophages 7 days: +/−
Primary monocytes; [2]
  binding to fresh monocytes: -
Primary monocytes; [4]
  binding to primary monocytes: −
HeLa
  binding to HeLa: ++
TSA
  binding to TSA: +
Primary lymphocytes; [2]
  binding to fresh lymphocytes: -
Primary lymphocytes; [4]
  binding to primary lymphocytes: −
Primary monocytes 2 days; [2]
  binding to monocytes 2 days: -
Primary monocytes 2 days; [4]
  binding to primary monocytes 2 days: −
Hepa1–6; Table S1, 2 mM MnCl2, on ice
  binding to Hepa1-6: +
Hepa1–6; [3]
  binding to Hepa1–6: +
A431; [3]
  binding to A431: ++
A431; [2]
  binding to A431: ++
NIH-3T3; Table S1, 2 mM MnCl2, on ice
  binding to NIH-3T3: +
NIH-3T3; [3]
  binding to NIH-3T3: +
J774A.1; Table S1, 2 mM MnCl2, on ice
  binding to J774A.1: -
J774A.1; [3]
  binding to J774A.1: −
HT-29
  binding to HT-29: ++
Primary macrophages 7d; Table S1, mouse, 2 mM MnCl2, on ice
  binding to macrophages 7d: -
Primary macrophages 7d; mouse, 2 mM MnCl2, 30 min on ice, streptavidin-PerCP-Cy5.5
  binding to primary macrophages 7d: −
3LL-S
  binding to 3LL-S: +
104C1; [5]
  binding to 104C1: ++
104C1; [6]
  binding to 104C1: ++
3LL-R; Table S1, 2 mM MnCl2, on ice
  binding to 3LL-R: +
3LL-R; [3]
  binding to 3LL-R: +
HUVEC; [3]
  binding to HUVEC: +
HUVEC; [2]
  binding to HUVEC: +
MCF-7
  binding to MCF-7: +
MDA-MB-231
  binding to MDA-MB-231: ++
4T1
  binding to 4T1: +
VX2 / J S-2-2r
  binding to VX2 / J S-2-2r: ++
leukocytes
  binding to leukocytes: -
U-138MG
  binding to U-138MG: ++
L-929
  binding to L-929: -
JH4 clone 1; [5]
  binding to JH4 clone 1: ++
JH4 clone 1; [6]
  binding to JH4 clone 1: ++
PC-3 or A431 cells
  streptavidin signal on cells after 5 min: no signal above background
PC-3; [3]
  binding to PC-3: ++
PC-3; [2]
  binding to PC-3: ++
Primary granulocytes; [2]
  binding to fresh granulocytes: -
Primary granulocytes; [4]
  binding to primary granulocytes: −
MC38
  binding to MC38: -
E0771
  binding to E0771: -
PBEC
  binding to PBEC: +
EG7
  binding to EG7: -
A549
  binding to A549: ++
GPC-16; [5]
  binding to GPC-16: ++
GPC-16; [6]
  binding to GPC-16: ++
C26
  binding to C26: +
K562; [3]
  binding to K562: −
K562; [2]
  binding to K562: -

## CC[C@H](C)[C@H](NC(=O)[C@H](CCSC)NC=O)C(=O)N[C@@H](Cc1ccccc1)C(=O)N[C@@H](CC(C)C)C(=O)NCC(=O)NCC(=O)N[C@@H](CCCCNC(=O)CCOCCOCCOCCOCCOCCOCCOCCOCCOCCOCCOCCOCCOCCOCCOCCOCCOCCOCCOCCOCCOCCOCCOCCOCCOCCOCCOCCOCCN)C(=O)N[C@@H](CCCCNC(=O)CCOCCOCCOCCOCCOCCOCCOCCOCCOCCOCCOCCOCCOCCOCCOCCOCCOCCOCCOCCOCCOCCOCCOCCOCCOCCOCCOCCOCCN)C(=O)O [F2-2PEG] (For-MIFLGGK(PEG28)K(PEG28)-OH)
Human monocytes; 100 nM F2-2PEG
  IL-1β secreted: increased
Human monocytes; [7]
  IL-6 level: not significantly increased
  IL-8 level: not significantly increased
  TNFα level: not significantly increased
Human granulocytes
  loss of potency for neutrophil activation (superoxide production) when linked to the PEG chains: 1–2 orders of magnitude
Human leukocytes
  loss of potency to induce chemotaxis when linked to the PEG chains: 1–2 orders of magnitude
Mouse skin
  immune cell infiltration at the injection site: clearly showed infiltration by immune cells
